Assay results from US10596172B2 (Celgene CAR LLC, priority 2008, dated 2020).
Like-named read-outs stand apart in the source and are kept apart here.

Assays:
[1] = target: T1, BTK (Homo sapiens (Human), UniProt Q06187); assay: BTK occupancy in Ramos cells with I-7 and probe I-215 using streptavidin beads; type: cell-based; conditions: 1 hour, higher concentrations of I-7 (above 10 nM)
Experimental: Ramos cells were incubated with 0.1, 0.05, 0.01, or 0.001 μM I-7 in serum free media for 1 hour at 37° C. The cells were pelleted by centrifugation and lysed in Cell Extraction buffer (Invitrogen) for 10 minutes on ice, centrifuged (10 minutes at 14,000 rpm) and the supernatant was collected. Cell lysates were incubated with 1 μM I-215 for 1 hour at room temperature, then incubated with streptavidin-coupled agarose beads (ThermoFisher) overnight at 4° C. The beads were washed three times with lysis buffer and the bound proteins were boiled off the beads at 95° C. for 5 minutes in 4×LDS Sample Buffer. The amount of BTK associated with the probe I-215 was assessed by BTK western blot. All values were normalized to the DMSO-treated sample which is set to 100%.

[2] = target: T1, BTK; assay: Washout experiment with I-7 and probe compound I-215 in Ramos cells; type: cell-based; conditions: 0.1 μM, 1 hour
Experimental: Ramos cells were incubated with 0.1 μM I-7 or a reversible BTK inhibitor control compound in serum free media for 1 hour at 37° C. The cells were then washed in compound-free media and lysed 0, 4, 6, or 8 hours after compound removal. Cell lysates were incubated with 1 μM I-215 for 1 hour at room temperature, then overnight at 4° C. with streptavidin-coupled agarose beads. Protein was boiled off the beads and BTK association was assessed by western blot. […] In contrast, with the reversible inhibitor control, 45% of BTK protein is unbound and available to the probe at 0 hours and by 4 hours 100% of BTK protein is unbound and available to bind the probe. All samples were normalized to the DMSO-treated cells harvested at 0 hours.

[3] = target: JAK3 (Homo sapiens (Human), UniProt P52333); assay: Mass spectrometry for Janus-3 kinase (JAK3); type: binding; conditions: 3 hrs at 10x excess, tryptic digest
Experimental: JAK3 kinase (33 pmols; Invitrogen) was incubated with (I-7) (327 pmols) for 3 hrs at 10× excess prior to tryptic digestion. Iodoacetamide was used as the alkylating agent after compound incubation. For tryptic digests a 5 ul aliquot (5.5 pmols) was diluted with 15 ul of 0.1% TFA prior to micro C18 Zip Tipping directly onto the MALDI target using alpha cyano-4-hydroxy cinnamic acid as the matrix (5 mg/ml in 0.1% TFA:Acetonitrile 50:50).
As depicted in FIG. 11, the expected peptide ([…]) to be modified was immediately evident as the largest peak at MH+ of 1725.88. This is the mass to be expected when compound I-7, with an adduct mass of 345.16, is added to the peptide mass of 1380.70. […] There was also evidence for a number of other modified peptides, however, their signals were low.
To further verify the presence of the modified peptides with compound I-7, the peptides at MH+ of 1725.88 and 1118.55 were subjected to PSD (MS/MS) analysis. A correlational analysis with the homo sapien database identified the correct peptides as being modified by I-7.
For tryptic digests the instrument was set in Reflectron mode with a pulsed extraction setting of 2200. Calibration was done using the Laser Biolabs Pep Mix standard ([…], 1296.69, 1672.92, 2093.09, 2465.20). […]

[4] = target: BTK (Rattus norvegicus, UniProt Q5S255); assay: BTK occupancy from in vivo samples by ELISA; conditions: po, rats dosed orally 30 mg/kg
Experimental: All samples were prepared with equal concentrations of Biorad lysis buffer (Hercules, Calif., USA), 0.5% bovine serum albumin in PBS with 0.05% Tween-20 to give a final concentration of 1 μM I-215. Samples were incubated in a mixing plate for 1 hr at room temperature while shaking to allow probe compound I-215 to bind to free BTK. After incubation with I-215, samples were added to a washed, streptavidin-coated ELISA plate (Pierce, Rockford, Ill., USA) and incubated for 1 hr at room temperature while shaking. The plate was then washed with PBS containing 0.05% Tween-20 using an automatic plate washer. Anti-BTK antibody was prepared at 1:1000 dilution in 0.5% BSA in PBS (0.05% Tween-20) and added to the ELISA plate. The plate was incubated for 1 hr at room temperature while shaking. The plate was washed as described above and the secondary HRP antibody was prepared at 1:5000 dilution in 0.5% BSA in PBS (0.05% Tween-20). The plate was incubated and washed as described above. TMB was added to the plate, and OD650 was monitored until reaching 1 OD unit. The reaction was then stopped with addition of H2SO4. The plate was analyzed using Gen 5 software, and a 4 Parameter Logistic curve was employed to quantitate samples. Recombinant BTK (Invitrogen, Carlsbad, Calif., USA) was used for the standard curve.
Rats were dosed orally with 30 mg/kg of compound and spleens were harvested either 2 or 24 hours after compound treatment. Rat spleens were disrupted between two microscope slides coated with frosted glass to recover single cell suspensions. Red blood cells were lysed by incubating with RBC lysis buffer (Boston BioProducts) for 2 minutes at room temperature, the cells were then resuspended in RPMI complete media and pelleted by centrifugation. Rat B cells were isolated by positive selection with B220+ antibody-magnetic bead conjugates, purified by MACS column and lysed in Bio-Rad lysis buffer at a concentration of 10 million cells/100 μl. Lysates were analyzed employing the biotinylated probe compound I-215 in an ELISA protocol as described in detail in Example 278.

[5] = target: Erbb4 kinase domain (Homo sapiens (Human), UniProt Q15303); assay: Mass spectrometry for ERBB4; type: binding; conditions: 60 minutes at 10-fold excess of compound
Experimental: Erbb4 kinase domain (Upstate) was incubated with compound for 60 minutes at 10-fold excess of compound I-4 and I-11 to protein. 1 μl aliquots of the samples (total volume of 4.24 ul) were diluted with 10 μl of 0.1% TFA prior to micro C4 ZipTipping directly onto the MALDI target using Sinapinic acid as the desorption matrix (10 mg/ml in 0.1% TFA:Acetonitrile 50:50). For intact protein mass measurement the instrument was set in Linear mode using a pulsed extraction setting of 16,952 for the myoglobin standard used to calibrate the instrument (Shimadzu Axima TOF^2).
Intact ErbB4 protein occurs at MH+ of 35850 with corresponding sinapinic (matrix) adducts occurring about 200 Da higher. A stoichiometric incorporation of the test compound (I-4 and I-11) (Mw of 410 Da) produced a new mass peak which is approximately 410 Da higher (MH+ of 36260).

[6] = spleen B cells harvested 2 hours after treatment, read-out: % BTK Occupancy 2 h
[7] = spleen B cells harvested 24 hours after treatment, read-out: % BTK Occupancy 24 h

Chain of BTK (Rattus norvegicus, UniProt Q5S255) (Q5S255 1-660): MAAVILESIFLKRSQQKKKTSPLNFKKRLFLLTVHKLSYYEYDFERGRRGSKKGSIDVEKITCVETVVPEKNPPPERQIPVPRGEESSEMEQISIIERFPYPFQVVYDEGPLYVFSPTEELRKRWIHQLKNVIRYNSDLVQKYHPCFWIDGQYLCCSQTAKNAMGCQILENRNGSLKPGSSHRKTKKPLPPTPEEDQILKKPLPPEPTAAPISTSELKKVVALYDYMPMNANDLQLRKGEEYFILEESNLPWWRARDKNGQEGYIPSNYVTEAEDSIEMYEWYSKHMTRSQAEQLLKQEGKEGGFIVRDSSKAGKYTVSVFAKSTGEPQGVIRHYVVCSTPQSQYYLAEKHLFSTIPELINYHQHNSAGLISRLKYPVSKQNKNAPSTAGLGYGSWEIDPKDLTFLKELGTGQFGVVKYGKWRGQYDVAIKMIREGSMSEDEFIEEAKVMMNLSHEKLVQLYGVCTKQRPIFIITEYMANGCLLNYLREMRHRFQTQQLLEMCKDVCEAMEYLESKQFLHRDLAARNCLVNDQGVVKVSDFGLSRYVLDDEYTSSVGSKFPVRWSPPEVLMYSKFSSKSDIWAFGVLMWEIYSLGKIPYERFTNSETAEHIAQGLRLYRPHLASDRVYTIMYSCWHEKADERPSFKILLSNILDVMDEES
T1 sequence (Q06187 whole entry): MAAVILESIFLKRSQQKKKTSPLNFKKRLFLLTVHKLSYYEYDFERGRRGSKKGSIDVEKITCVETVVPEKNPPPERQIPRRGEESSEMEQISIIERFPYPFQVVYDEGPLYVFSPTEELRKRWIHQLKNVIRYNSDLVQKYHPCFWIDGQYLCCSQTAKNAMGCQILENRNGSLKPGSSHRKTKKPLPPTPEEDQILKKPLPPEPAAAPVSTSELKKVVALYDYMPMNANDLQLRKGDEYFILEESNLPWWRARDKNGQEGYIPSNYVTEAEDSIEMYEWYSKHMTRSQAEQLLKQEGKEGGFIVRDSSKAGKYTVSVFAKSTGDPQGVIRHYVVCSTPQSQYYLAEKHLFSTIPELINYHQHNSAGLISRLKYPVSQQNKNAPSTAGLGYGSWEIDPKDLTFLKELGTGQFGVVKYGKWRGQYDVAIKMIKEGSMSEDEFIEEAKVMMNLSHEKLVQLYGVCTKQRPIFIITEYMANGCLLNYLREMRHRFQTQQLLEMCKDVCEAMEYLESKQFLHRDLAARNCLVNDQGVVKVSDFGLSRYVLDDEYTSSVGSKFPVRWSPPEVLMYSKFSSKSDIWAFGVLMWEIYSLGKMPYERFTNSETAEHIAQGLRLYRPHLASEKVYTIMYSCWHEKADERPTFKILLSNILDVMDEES
Chain of JAK3 (P52333 whole entry): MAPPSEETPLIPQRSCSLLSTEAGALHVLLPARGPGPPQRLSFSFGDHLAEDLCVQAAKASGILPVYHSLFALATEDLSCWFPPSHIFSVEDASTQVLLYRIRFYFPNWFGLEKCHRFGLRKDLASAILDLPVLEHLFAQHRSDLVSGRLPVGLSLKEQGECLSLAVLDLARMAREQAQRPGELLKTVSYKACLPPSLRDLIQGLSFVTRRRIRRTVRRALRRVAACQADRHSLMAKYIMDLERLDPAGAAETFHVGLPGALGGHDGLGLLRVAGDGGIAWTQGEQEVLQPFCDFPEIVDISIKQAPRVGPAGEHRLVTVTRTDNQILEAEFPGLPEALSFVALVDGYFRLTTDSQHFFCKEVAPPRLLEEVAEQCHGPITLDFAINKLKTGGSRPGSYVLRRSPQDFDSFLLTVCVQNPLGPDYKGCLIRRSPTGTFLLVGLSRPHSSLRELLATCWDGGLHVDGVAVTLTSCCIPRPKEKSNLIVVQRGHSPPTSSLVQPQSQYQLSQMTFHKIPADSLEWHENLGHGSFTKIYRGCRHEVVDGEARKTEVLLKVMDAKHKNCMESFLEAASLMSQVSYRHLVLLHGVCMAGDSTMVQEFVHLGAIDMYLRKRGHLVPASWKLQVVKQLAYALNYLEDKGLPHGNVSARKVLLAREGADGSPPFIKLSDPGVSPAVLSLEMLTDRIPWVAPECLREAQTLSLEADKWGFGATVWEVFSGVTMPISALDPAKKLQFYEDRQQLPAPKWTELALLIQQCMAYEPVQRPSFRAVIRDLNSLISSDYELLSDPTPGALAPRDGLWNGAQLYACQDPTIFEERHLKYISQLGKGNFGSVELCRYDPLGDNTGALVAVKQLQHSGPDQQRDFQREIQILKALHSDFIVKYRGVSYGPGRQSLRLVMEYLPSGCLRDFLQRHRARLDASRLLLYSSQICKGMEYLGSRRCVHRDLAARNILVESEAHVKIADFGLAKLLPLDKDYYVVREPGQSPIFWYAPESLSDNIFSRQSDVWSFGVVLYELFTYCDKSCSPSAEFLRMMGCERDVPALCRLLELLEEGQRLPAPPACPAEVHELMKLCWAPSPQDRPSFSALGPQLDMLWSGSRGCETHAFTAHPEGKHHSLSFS
Chain of Erbb4 kinase domain (Q15303 718-985): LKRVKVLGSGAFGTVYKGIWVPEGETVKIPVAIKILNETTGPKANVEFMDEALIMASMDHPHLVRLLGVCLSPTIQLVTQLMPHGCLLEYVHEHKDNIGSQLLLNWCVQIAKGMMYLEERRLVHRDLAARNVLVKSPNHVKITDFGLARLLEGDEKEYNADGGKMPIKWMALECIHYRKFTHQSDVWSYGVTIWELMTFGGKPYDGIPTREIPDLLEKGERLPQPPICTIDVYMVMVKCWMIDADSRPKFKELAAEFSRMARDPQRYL

SMILES: C=CC(=O)Nc1cccc(Nc2nc(Nc3ccccc3)ncc2C)c1 [Compound I-7, N-(3-(5-methyl-2-(phenylamino)pyrimidin-4-ylamino)phenyl)acrylamide]
- BTK occupancy (BTK available to probe I-215) [1]: fully occupied
- time BTK protein remains occupied after compound removal [2]: over 8 hours
- covalent modification of JAK3 peptide LVMEYLPSGCLR (Cys909) by mass spectrometry [3]: not entirely complete
- receptor occupancy at 30 mg/kg [4, 6]: 98%
- receptor occupancy at 30 mg/kg [4, 7]: 78%

SMILES: Cc1cccc(Nc2nc(Nc3cccc(NC(=O)/C=C/CN(C)C)c3)ncc2F)c1 [Compound I-4, (E)-4-(dimethylamino)-N-(3-(5-fluoro-4-(m-tolylamino)pyrimidin-2-ylamino)phenyl)but-2-enamide]
- covalent modification of ErbB4 by mass spectrometry [5]: covalent modification
- receptor occupancy at 30 mg/kg [4, 6]: 87%
- receptor occupancy at 30 mg/kg [4, 7]: 68%
